Data as given in patent US9540343B2 (Gilead Sciences, Inc., priority 2011, dated 2017).

Columns and labels:
in vitro = assay: in vitro
How it was run: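 Cytoprotection read-out: CellTiter-Glo chemiluminescence after 5 days at 37 °C of HIV-IIIb-infected MT-4 cells (m.o.i. 0.003) with compound in 10-point 3-fold dilutions, quadruplicate, 10% FBS. Cytotoxicity (CC50) measured identically without virus.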

HIV-IIIb = assay: Test A: Antiviral assay in MT4 cells; format: cell-based, HIV-1; settings: MT-4 cells infected with HIV-IIIb, 5 days, CellTiter-Glo; for inhibition at 2 µM: Human immunodeficiency virus 1, IIIB, MT4, 120 h, read-out: % inhibition at 2 μM, percent inhibition of virus-induced cell killing, from dose response curve at 2 uM drug
[1] = human, uninfected MT-4 cells, CC50 (nM), same protocol as Test A, CellTiter-Glo

SMILES	CC50 at 5 days (in vitro; [1]) [nM]	% inhibition at 2 μM (HIV-IIIb; percent inhibition of virus-induced cell killing, from dose response curve at 2 uM drug) [%]	inhibition at 2 µM (HIV-IIIb) [%]	CC50 at 5 days (in vitro; human, CC50 (nM), uninfected MT-4 cells, same protocol as Test A, CellTiter-Glo) [nM]
CCC(C(=O)N[C@@H](Cc1cc(F)cc(F)c1)c1ncccc1-c1ccc(F)c(C(N)=O)c1)n1nc(C(F)(F)F)c2c1CCCC2 (stereo partly drawn) [Example 504E, 5-(2-((1S)-2-(3,5-difluorophenyl)-1-(2-(3-(trifluoromethyl)-4,5,6,7-tetrahydro-1H-indazol-1-yl)butanamido)ethyl)pyridin-3-yl)-2-fluorobenzamide]	12800	142	–	–
NC(=O)c1cc(-c2cccnc2[C@H](Cc2cc(F)cc(F)c2)NC(=O)Cn2nc(C(F)F)cc2C(F)F)ccc1F [Example 505, (S)-5-(2-(1-(2-(3,5-bis(difluoromethyl)-1H-pyrazol-1-yl)acetamido)-2-(3,5-difluorophenyl)ethyl)pyridin-3-yl)-2-fluorobenzamide]	> 47400	–	28	–
Cc1nn(CC(=O)N[C@@H](Cc2cc(F)cc(F)c2)c2ncccc2-c2cccc(C(N)=O)c2)c(C)c1C [Example 506, (S)-3-(2-(2-(3,5-difluorophenyl)-1-(2-(3,4,5-trimethyl-1H-pyrazol-1-yl)acetamido)ethyl)pyridin-3-yl)benzamide]	> 53000	–	32	–
CC(C(=O)N[C@@H](Cc1cc(F)cc(F)c1)c1ncccc1-c1ccc(F)c(C(N)=O)c1)n1ccc(C(F)(F)F)n1 (stereo partly drawn) [Example 507B, 5-(2-((1S)-2-(3,5-difluorophenyl)-1-(2-(3-(trifluoromethyl)-1H-pyrazol-1-yl)propanamido)ethyl)pyridin-3-yl)-2-fluorobenzamide]	> 45300	–	22	–
O=C(Cn1nc(C(F)F)c2c1C(F)(F)CCC2(F)F)N[C@@H](Cc1cc(F)cc(F)c1)c1ncccc1-c1ccc2c(c1)CNC2=O [Example 508D, (S)-2-(3-(difluoromethyl)-4,4,7,7-tetrafluoro-4,5,6,7-tetrahydro-1H-indazol-1-yl)-N-(2-(3,5-difluorophenyl)-1-(3-(1-oxoisoindolin-5-yl)pyridin-2-yl)ethyl)acetamide]	5130	–	96	–
CCc1cccc2c(C(C)=O)cn(CC(=O)N[C@@H](Cc3cc(F)cc(F)c3)c3ncccc3-c3ccc(F)c(C(N)=O)c3)c12 [Example 509, (S)-5-(2-(1-(2-(3-acetyl-7-ethyl-1H-indol-1-yl)acetamido)-2-(3,5-difluorophenyl)ethyl)pyridin-3-yl)-2-fluorobenzamide]	–	–	48	24600
NC(=O)c1cccc(-c2cccnc2[C@H](Cc2cc(F)cc(F)c2)NC(=O)Cc2cccc(Cl)c2)c1 [Example 510, (S)-3-(2-(1-(2-(3-chlorophenyl)acetamido)-2-(3,5-difluorophenyl)ethyl)pyridin-3-yl)benzamide]	35900	–	3	–
CCC(C(=O)N[C@@H](Cc1cc(F)cc(F)c1)c1ncccc1-c1ccc(F)c(C(N)=O)c1)n1nc(C(F)(F)F)cc1C1CC1 (stereo partly drawn) [Example 511C, 5-(2-((1S)-1-(2-(5-cyclopropyl-3-(trifluoromethyl)-1H-pyrazol-1-yl)butanamido)-2-(3,5-difluorophenyl)ethyl)pyridin-3-yl)-2-fluorobenzamide]	11800	–	17	–
O=C(Cn1nc(C(F)F)cc1C(F)F)N[C@@H](Cc1cc(F)cc(F)c1)c1ncccc1-c1cnc2[nH]ccc2c1 [Example 512C, (S)—N-(1-(3-(1H-pyrrolo[2,3-b]pyridin-5-yl)pyridin-2-yl)-2-(3,5-difluorophenyl)ethyl)-2-(3,5-bis(difluoromethyl)-1H-pyrazol-1-yl)acetamide]	19900	–	60	–
O=C(Cc1c[nH]c2ccc(C(F)(F)F)cc12)N[C@@H](Cc1cc(F)cc(F)c1)c1ncccc1-c1ccc(Cl)cc1 [Example 513, (S)—N-(1-(3-(4-chlorophenyl)pyridin-2-yl)-2-(3,5-difluorophenyl)ethyl)-2-(5-(trifluoromethyl)-1H-indol-3-yl)acetamide]	10700	–	63	–
NC(=O)c1cc(-c2cccnc2[C@H](Cc2cc(F)cc(F)c2)NC(=O)Cn2ccc3cnccc32)ccc1F [Example 514, (S)-5-(2-(1-(2-(1H-pyrrolo[3,2-c]pyridin-1-yl)acetamido)-2-(3,5-difluorophenyl)ethyl)pyridin-3-yl)-2-fluorobenzamide]	> 46100	–	3	–
Cc1[nH]c2ccc(F)cc2c1CC(=O)N[C@@H](Cc1cc(F)cc(F)c1)c1ncccc1-c1cccc(C(N)=O)c1 [Example 517E, (S)-3-(2-(2-(3,5-difluorophenyl)-1-(2-(5-fluoro-2-methyl-1H-indol-3-yl)acetamido)ethyl)pyridin-3-yl)benzamide]	19100	–	87	–
NC(=O)c1cc(-c2cccnc2[C@H](Cc2cc(F)cc(F)c2)NC(=O)Cn2cnc3cc(Cl)c(Cl)cc32)ccc1F [Example 518, (S)-5-(2-(1-(2-(5,6-dichloro-1H-benzo[d]imidazol-1-yl)acetamido)-2-(3,5-difluorophenyl)ethyl)pyridin-3-yl)-2-fluorobenzamide]	10500	–	11	–
CC(C(=O)N[C@@H](Cc1cc(F)cc(F)c1)c1ncccc1-c1ccc(F)c(C(N)=O)c1)n1nc(C(F)(F)F)cc1C1CC1 (stereo partly drawn) [Example 519, 5-(2-((1S)-1-(2-(5-cyclopropyl-3-(trifluoromethyl)-1H-pyrazol-1-yl)propanamido)-2-(3,5-difluorophenyl)ethyl)pyridin-3-yl)-2-fluorobenzamide]	20300	–	65	–
CC(C)c1cc(C(=O)NC2CC2)n(CC(=O)N[C@@H](Cc2cc(F)cc(F)c2)c2ncccc2-c2ccc(F)c(C(N)=O)c2)n1 [Example 520, (S)-1-(2-(1-(3-(3-carbamoyl-4-fluorophenyl)pyridin-2-yl)-2-(3,5-difluorophenyl)ethylamino)-2-oxoethyl)-N-cyclopropyl-3-isopropyl-1H-pyrazole-5-carboxamide]	> 53200	–	30	–
CC(C)c1cc(C(=O)O)nn1CC(=O)N[C@@H](Cc1cc(F)cc(F)c1)c1ncccc1-c1ccc(F)c(C(N)=O)c1 [Example 521]	> 53200	–	0	–
Cc1cc2c(ccn2CC(=O)N[C@@H](Cc2cc(F)cc(F)c2)c2ncccc2-c2ccc(F)c(C(N)=O)c2)cn1 [Example 522, (S)-5-(2-(2-(3,5-difluorophenyl)-1-(2-(6-methyl-1H-pyrrolo[3,2-c]pyridin-1-yl)acetamido)ethyl)pyridin-3-yl)-2-fluorobenzamide]	47900	–	4	–
CNC(=O)c1nc2c(C)cccc2n1CC(=O)N[C@@H](Cc1cc(F)cc(F)c1)c1ncccc1-c1ccc(F)c(C(N)=O)c1 [Example 523, (S)-1-(2-(1-(3-(3-carbamoyl-4-fluorophenyl)pyridin-2-yl)-2-(3,5-difluorophenyl)ethylamino)-2-oxoethyl)-N,4-dimethyl-1H-benzo[d]imidazole-2-carboxamide]	48800	–	24	–
O=C(Cn1nc(C(F)F)c2c1C(F)(F)CCC2(F)F)N[C@@H](Cc1cc(F)cc(F)c1)c1ncncc1-c1ccc(Cl)cc1 [Example 524D, (S)—N-(1-(5-(4-chlorophenyl)pyrimidin-4-yl)-2-(3,5-difluorophenyl)ethyl)-2-(3-(difluoromethyl)-4,4,7,7-tetrafluoro-4,5,6,7-tetrahydro-1H-indazol-1-yl)acetamide]	8530	–	78	–
NC(=O)c1cc(-c2cccnc2[C@H](Cc2cc(F)cc(F)c2)NC(=O)Cn2nc(C(F)(F)F)c3c2CCC3O)ccc1F (stereo partly drawn) [Example 525, 5-(2-((1S)-2-(3,5-difluorophenyl)-1-(2-(4-hydroxy-3-(trifluoromethyl)-5,6-dihydrocyclopenta[c]pyrazol-1(4H)-yl)acetamido)ethyl)pyridin-3-yl)-2-fluorobenzamide]	> 53200	–	83	–
CC(C)(C)OC(=O)NCc1ccc2c(CC(=O)N[C@@H](Cc3cc(F)cc(F)c3)c3ncccc3-c3ccc(Cl)cc3)c[nH]c2c1 [Example 526, (S)-tert-butyl (3-(2-(1-(3-(4-chlorophenyl)pyridin-2-yl)-2-(3,5-difluorophenyl)ethylamino)-2-oxoethyl)-1H-indol-6-yl)methylcarbamate]	10000	–	50	–
NC(=O)c1cccc(-c2cccnc2[C@H](Cc2cc(F)cc(F)c2)NC(=O)Cc2c[nH]c3cc(C(F)(F)F)ccc23)c1 [Example 527E, (S)-3-(2-(2-(3,5-difluorophenyl)-1-(2-(6-(trifluoromethyl)-1H-indol-3-yl)acetamido)ethyl)pyridin-3-yl)benzamide]	10600	–	66	–
O=C(Cn1nc(C(F)F)cc1C(F)F)N[C@@H](Cc1cc(F)cc(F)c1)c1ccccn1 [Example 528, (S)-2-(3,5-bis(difluoromethyl)-1H-pyrazol-1-yl)-N-(2-(3,5-difluorophenyl)-1-(pyridin-2-yl)ethyl)acetamide]	> 53200	–	0	–
CC(C)(C)OC(=O)NCc1ccc2[nH]cc(CC(=O)N[C@@H](Cc3cc(F)cc(F)c3)c3ncccc3-c3cccc(C(N)=O)c3)c2c1 [Example 529, (S)-tert-butyl (3-(2-(1-(3-(3-carbamoylphenyl)pyridin-2-yl)-2-(3,5-difluorophenyl)ethylamino)-2-oxoethyl)-1H-indol-5-yl)methylcarbamate]	13000	–	53	–
NC(=O)c1cc(-c2cccnc2[C@H](Cc2cc(F)cc(F)c2)NC(=O)Cc2c[nH]c3c(F)cc(F)cc23)ccc1F [Example 530E, (S)-5-(2-(1-(2-(5,7-difluoro-1H-indol-3-yl)acetamido)-2-(3,5-difluorophenyl)ethyl)pyridin-3-yl)-2-fluorobenzamide]	15300	–	55	–
